# Test results taken from patent US20110110886A1, “SMALL MOLECULE INHIBITORS OF AUTOTAXIN AND METHODS OF USE” (Yale University, priority 2008, published 2011).
# Legend:
# [1] = oral, ref. [43]; cited from earlier work
# [2] = test system: melanoma cell line HTB 63; assay: Cell migration assay, melanoma cell line HTB 63; type: cell-based, human
# Method: 9B. […] All error bars in this figure indicate the standard error of the mean for nine replicates. The addition of LPA to the experimental groups containing inhibitors (LPA rescue) completely abrogated the small molecule inhibitory effect on cell motility (see discussion). […] Cell culture: Human melanoma cells, A2058 (ATCC), were grown in Dulbecco's Modified Eagle's Medium (DMEM) (Gibco), MeI 28 (ATCC), YUSAC2 (Yale University) and MeI-888 (Yale University) were grown in OptiMEM media (Gibco), and HTB 63 (ATCC) were grown in McKoy's 5a medium (ATCC). Human breast adenocarcinoma cells, MDA-MB-231(ATCC) and ovarian carcinoma cells […] (Gil Mor, Yale University) were grown in RPMI-1640 (Gibco). All cell media was supplemented with 10% (v/v) fetal calf serum (FCS) (Gibco) and 1% (v/v) L-glutamine (Gibco) and grown at 37° C. in a humidified atmosphere containing 5% CO2. Cell motility assays: […] Chemo-attractant (ATX ±inhibitor) and/or controls were placed in the lower half of the chamber, and the cells in the upper chamber. […] Non-migrating cells were removed from the membrane by scraping the top surface. The cells were quantitated by counting the cell number per high powered field in the various wells. Treatments were compared using a chi squared test.
compound,measurement,setting,value
Oc1c(Cl)cc(Cl)cc1Sc1cc(Cl)cc(Cl)c1O [Bithionol],dose that can be safely dosed in humans,[1],25 mg kg^−1 body weight per day
same,inhibition of ATX-stimulated HTB63 cell migration,"[2]; 50 nM ATX, 3 hours",can be inhibited
same,LPA rescue of inhibited HTB63 cell migration,[2]; excess LPA (75 nM),rescued by excess LPA
